Results on 15 compounds are retold here after patent publication US5063245A, “Corticotropin-releasing factor antagonism compounds” (Nova Pharmaceutical Corporation, priority 1990, dated 1991).

Entries after “also recorded” stand apart in the source; their conditions may differ. Counter-ions that a name gives are not always drawn. Like-named read-outs stand apart in the source and are kept apart here. Ends that are not written are not given here.

For experiment [1] the following is noted: intracerebroventricular (icv); cited from earlier work.
A further experiment concerns adenylate cyclase. As to the kind of experiment: Stimulation of adenylate cyclase activity by oCRF (rat frontal cortex). In kind it is biochemical. The following applies: 10^-6 M oCRF, 37° C., 10 minutes. As to the method:
Male Sprague-Dawley rats (175-250 g) were sacrificed by decapitation, the frontal cortex was dissected and homogenized in 30 volumes (w/v) of ice-cold buffer (50 mM Tris HCl, 10 mM MgCl2, 2 mM EGTA; pH 7.2 at 22° C.). The homogenate was centrifuged at 40,000×g for 3 minutes (4° C.), the supernatant discarded and the pellet resuspended in original volume of fresh homogenization buffer. Following centrifugation at 40,000×g for 30 minutes, the resulting pellet was suspended to a tissue concentration of 20 mg original wet weight of tissue per mL (approximately 40-60 μg protein/mL). For determination of basal adenylate cyclase activity, assays are carried out at 37° C. for 10 minutes in 250 μL of buffer containing 100 mM Tris HCl, 10 mM MgCl2, 0.4 mM EGTA, 0.1% BSA, 1 mM isobutylmethylxanthine (IBMX), 3 units/tube phosphocreatine kinase, 5 mM creatine phosphate, 100 μM guanosine. Maximal stimulation of adenylate cyclase activity was accomplished by the addition of 10^-6 M oCRF. Stimulated enzyme activity generally represented a 75-95% increase over basal levels. […] Individual data points were expressed as pmoles of cAMP formed/10 minutes/mg protein. Protein content of tissue samples was measured using the BioRad method with bovine serum albumin serving as the standard.

A further experiment concerns the target T1, CRF receptor (Rattus norvegicus, UniProt P35353).
T1 construct: the cerebral cortex was removed and the tissue homogenized; from tissue; host or cells: cerebral cortex membranes of male Sprague-Dawley rats
T1 sequence (P35353 24-415): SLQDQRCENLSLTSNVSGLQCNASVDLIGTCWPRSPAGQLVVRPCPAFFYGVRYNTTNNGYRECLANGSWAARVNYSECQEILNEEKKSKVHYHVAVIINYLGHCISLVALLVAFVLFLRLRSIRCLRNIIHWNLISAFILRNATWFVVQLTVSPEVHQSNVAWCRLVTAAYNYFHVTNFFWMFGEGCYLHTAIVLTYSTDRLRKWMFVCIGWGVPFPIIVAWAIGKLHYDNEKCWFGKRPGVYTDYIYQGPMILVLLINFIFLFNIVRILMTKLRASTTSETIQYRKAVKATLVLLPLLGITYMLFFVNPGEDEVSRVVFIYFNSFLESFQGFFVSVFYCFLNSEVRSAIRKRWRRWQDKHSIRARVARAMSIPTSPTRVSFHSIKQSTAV
As to the kind of experiment: In vitro receptor binding: inhibition of specific binding of [125I]tyrosine-oCRF to rat cerebral cortex membranes. The following applies: [125I]Tyr-oCRF 50-100 pM, 2 hours at room temperature. As to the method:
The potency of the compounds of the invention as inhibitors of the specific binding of radiolabeled CRF to rat cerebral cortex membranes was examined using a standard in vitro radioligand binding technique. […] The homogenate was centrifuged at 48,000×g for 10 minutes at 4° C. The supernatant was removed, the tissue pellet suspended in the original volume of fresh homogenization buffer using a Polytron and centrifuged as before. […] Incubation buffer consists of 50 mM Hepes (pH 7.0 at 22° C.) containing 10 mM MgCl2, 2 mM EGTA, 0.1 mM bacitracin, 100 KIU (kallikrein inhibitor units)/mL aprotinin and 0.1% BSA (bovine serum albumin). […] Nonspecific binding was determined in the presence of 1 μM oCRF. The binding reaction was allowed to proceed for 2 hours at room temperature. Bound radioligand was separated from the incubation medium by centrifugation in a Beckman microfuge for 5 minutes at 12,000×g. The supernatant was aspirated and the resulting pellet was washed with 1 mL of cold phosphate buffered saline (pH 7.2) containing 0.01% of Triton X-100.
Tyr-oCRF to rat cortical membranes was determined on at least three separate occasions using 8-10 concentrations of each compound and utilizing triplicate incubations. The IC50 and apparent Hill coefficient for each compound were calculated using a computer-assisted log-logit analysis.

The target in experiment [2] is CRF-stimulated adenylate cyclase. As to the kind of experiment: Inhibition of CRF-stimulated adenylate cyclase activity (rat frontal cortex). In kind it is biochemical. The following applies: 1 μM oCRF, 37° C., 10 minutes. From the text: CRF antagonist activity is established by the ability of the compounds to antagonize CRF-stimulated adenylate cyclase activity, it having been established that CRF receptors are coupled to a guanine nucleotide regulatory protein that activates adenylate cyclase [G. Aguilera et al., Neuroendocrinology, 43, 79 (1986); G. Battaglia et al., Synapse, 1, 572 (1987)].
Male Sprague-Dawley rats (175-250 g) were sacrificed by decapitation, the frontal cortex was dissected and homogenized in 30 volumes (w/v) of ice-cold buffer (50 mM Tris HCl, 10 mM MgCl2, 2 mM EGTA; pH 7.2 at 22° C.). The homogenate was centrifuged at 40,000×g for 3 minutes (4° C.), the supernatant discarded and the pellet resuspended in original volume of fresh homogenization buffer. Following centrifugation at 40,000×g for 30 minutes, the resulting pellet was suspended to a tissue concentration of 20 mg original wet weight of tissue per mL (approximately 40-60 μg protein/mL). For determination of basal adenylate cyclase activity, assays are carried out at 37° C. for 10 minutes in 250 μL of buffer containing 100 mM Tris HCl, 10 mM MgCl2, 0.4 mM EGTA, 0.1% BSA, 1 mM isobutylmethylxanthine (IBMX), 3 units/tube phosphocreatine kinase, 5 mM creatine phosphate, 100 μM guanosine. Maximal stimulation of adenylate cyclase activity was accomplished by the addition of 10^-6 M oCRF. Stimulated enzyme activity generally represented a 75-95% increase over basal levels. Reactions were initiated by the addition of tissue and terminated by the addition of 150 μL of 50 mM Tris HCl, 45 mM ATP, 2% sodium dodecyl sulfate (SDS), and [^3 H] cAMP (approximately 40,000 dpm). The [^3 H]cAMP was added to each assay tube to monitor recovery of cAMP during subsequent chromatography steps. Separation of [^32 P]cAMP from [^32 P]ATP was accomplished by sequential elution over Dowex and alumina columns. The eluate (4 mL) was collected in 20 mL scintillation vials to which 8 mL of Beckman EP fluor was added. Vials were shaken for 30 minutes prior to measuring ^3 H and ^32 P by scintillation counting. All data were fed directly from the liquid scintillation counter via RS232 port to a VAX 8300 computer. Individual data points were expressed as pmoles of cAMP formed/10 minutes/mg protein. Protein content of tissue samples was measured using the BioRad method with bovine serum albumin serving as the standard.
Determination of antagonist activity was accomplished by addition of at least six concentrations of the compound (10^-8 -10^-4 M), evaluated in triplicate, in the presence of a maximally stimulating concentration of oCRF (1 μM). IC50 values were derived from a log-logit transformation of the data on a Vax 8300.

Where [3] appears, read: Table I, Formula I, read-out: Inhibition of CRF Binding, Rat Cerebral Cortex Membrane, IC50.
The mark [4] stands for this setting: Table II, Formula II (disulfides), read-out: Inhibition of CRF Binding, Rat Cerebral Cortex Membrane, IC50.
Setting [5] is: Table II, Formula II (disulfides).
The mark [6] stands for this setting: Inhibition of CRF Binding, Rat Cerebral Cortex Membrane, IC50, Table I, Formula I.

For the compound “CRF: corticotropin releasing factor (SEEPPISLDLTFHLLREVLEMARAEQLAQQAHSNRKLMEII; ends and bridges not checked; UniProt P06850 154-194, looked up)”, the “effect of icv injection of CRF (in words)” value in experiment [1] was “elicits behavioral activation; also recorded: produces a long-lasting activation of the electroencephalogram; also recorded: stimulates the sympathoadrenomedullary pathway; also recorded: increases heart rate and blood pressure; also recorded: increases oxygen consumption; also recorded: alters gastrointestinal activity; also recorded: suppresses food consumption; also recorded: compromises immune function”.
As to “oCRF: ovine CRF, a 41 residue straight chain peptide”, the “Stimulated enzyme activity, increase over basal levels” value with adenylate cyclase is given as 75-95%.
As to `CC(=O)Nc1cccc(-c2c(SC#N)c(=O)n(-c3ccccc3)n2C)c1` [Formula I: Ph, CH3,3-AcNHPh, SCN, 2-methyl-5-oxo-1-phenyl-3-(3-acetamidophenyl)-3-pyrazolin-4-yl thiocyanate], the IC50 (usually the concentration at which inhibition is half-maximal) was found to be 6.5 µM on CRF receptor (setting [3]) and 3 µM in experiment [2] (Table I, Formula I).
Take `CCn1c(C)c(SSc2c(C)n(CC)n(Cc3ccccc3)c2=O)c(=O)n1Cc1ccccc1` [Formula II: CH2 Ph, C2 H5, CH3, 1-benzyl-2-ethyl-3-methyl-5-oxo-3-pyrazolin-4-yl disulfide]: the IC50 at CRF receptor (setting [4]) amounted to 4.3 µM; in experiment [2] (setting [5]), 3.8 µM.
Take `Cc1c(SC#N)c(=O)n(C2CCCCC2)n1C` [Formula I: C6 H11, CH3, CH3, SCN, 1-cyclohexyl-2,3-dimethyl-5-oxo-3-pyrazolin-4-yl thiocyanate]: the IC50 at CRF receptor (setting [3]) was found to be 15 µM; in experiment [2] (Table I, Formula I) it was 35.2 µM.
Taken in the same sequence, the figures for `CCn1c(C)c(SC#N)c(=O)n1Cc1ccccc1` [Formula I: CH2 Ph, CH2 CH3, CH3, SCN, 1-benzyl-2-ethyl-3-methyl-5-oxo-3-pyrazolin-4-yl thiocyanate] were 17 µM and 39.9 µM.
As to `CCCn1c(C)c(SC#N)c(=O)n1-c1ccccc1` [Formula I: Ph, (CH2)2 CH3, CH3, SCN, 3-methyl-5-oxo-1-phenyl-2-propyl-3-pyrazolin-4-yl thiocyanate], the IC50 is 32 µM on CRF receptor (setting [6]) and 16.9 µM in experiment [2] (Table I, Formula I).
Consider `CCn1c(C)c(SC#N)c(=O)n1-c1cccc(Cl)c1` [Formula I: 3-ClPh, C2 H5, CH3, SCN, 2-ethyl-3-methyl-5-oxo-1-(3-chlorophenyl)-3-pyrazolin-4-yl thiocyanate], for which the IC50 turned out to be 7.4 µM at CRF receptor (setting [3]) and 6.9 µM in experiment [2] (Table I, Formula I).
Take `Cc1c(SC(Cl)(Cl)Cl)c(=O)n(-c2ccccc2)n1C` [Formula I: Ph, CH3, CH3, SCCl3, 2,3-Dimethyl-5-Oxo-1-Phenyl-3-4-trichloromethylthio-Pyrazoline]: the IC50 on CRF receptor (setting [6]) amounted to 20.4 µM; in experiment [2] (Table I, Formula I) it was 9.6 µM.
In the case of `Cc1c(SSc2c(C)n(C)n(-c3ccccc3)c2=O)c(=O)n(-c2ccccc2)n1C` [Formula II: Ph, CH3, CH3, HCl, 2,3-Dimethyl-5-Oxo-1-Phenyl-3-Pyrazolin-4-yl Disulfide], the IC50 on CRF receptor (setting [4]) turned out to be 6.4 µM; in experiment [2] (setting [5]), 2.5 µM.
For `Cc1c(SSc2c(C)n(C)n(-c3ccccc3)c2=O)c(=O)n(-c2ccccc2)n1C` [Formula II: Ph, CH3, CH3, 2,3-Dimethyl-5-Oxo-1-Phenyl-3-Pyrazolin-4-yl Disulfide], the half-inhibitory concentration (IC50) was 2.2 µM at CRF receptor (setting [4]) and 1.1 µM in experiment [2] (setting [5]).
As for `Cc1c(SC#N)c(=O)n(-c2ccccc2)n1C` [Formula I: Ph, CH3, CH3, SCN, 2,3-dimethyl-5-oxo-1-phenyl-3-pyrazolin-4-yl thiocyanate], the IC50 on CRF receptor (setting [3]) came to 16 µM; in experiment [2] (Table I, Formula I) it was 19.5 µM.
In the case of `Cc1c(SC#N)c(=O)n(-c2cccc(C#N)c2)n1C` [Formula I: 3-CNPh, CH3, CH3, SCN, 2,3-dimethyl-5-oxo-1-(3-cyanophenyl)-3-pyrazolin-4-yl thiocyanate], the 50% inhibitory concentration (IC50) at CRF receptor (setting [3]) came out at 15.5 µM; in experiment [2] (Table I, Formula I), 6.9 µM.
For `CCc1c(SSc2c(CC)n(C)n(-c3ccccc3)c2=O)c(=O)n(-c2ccccc2)n1C` [Formula II: Ph, CH3, C2 H5, 3-ethyl-2-methyl-5-oxo-1-phenyl-3-pyrazolin-4-yl disulfide], the IC50 (at CRF receptor (setting [4]); in experiment [2] (setting [5])) was 3.3 µM throughout.
Turning to `Cc1c(SC#N)c(=O)n(-c2c(Cl)cccc2Cl)n1C` [Formula I: 2,6-Cl2 Ph, CH3, CH3, SCN, 2,3-dimethyl-5-oxo-1-(2,6-dichlorophenyl)-3-pyrazolin-4-yl thiocyanate], the IC50 at CRF receptor (setting [6]) came out at 18.9 µM; in experiment [2] (Table I, Formula I), 29.9 µM.
